Measured values published in the supplement of paper PMC4862054.

Assays:
Conditions in all cases: incubation time: 72 h
[1] = tested on: MDA-MB-468; test: normalised viability (% of control), CellTiter-Blue; higher = more viable cells (about 100 = DMSO control)
Procedure, shortened: (§1)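 Breast cancer cell lines were treated for 72 h in 384-well format and measured by CellTiter-Blue fluorescence at 560/590 nm. Results were normalised per plate to vehicle (100) and a positive kill control (0). The entry is normalised viability at a single listed concentration of the series.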

[2] = tested on: BT-549; test: as above
Procedure, shortened: as §1

[3] = tested on: CAL-120; test: as above
Procedure, shortened: as §1

[4] = tested on: BT-474; test: as above
Procedure, shortened: as §1

[5] = tested on: DU-4475; test: as above
Procedure, shortened: as §1

[6] = tested on: MDA-MB-231; test: as above
Procedure, shortened: as §1

[7] = tested on: MDA-MB-453; test: as above
Procedure, shortened: as §1

[8] = tested on: MDA-MB-436; test: as above
Procedure, shortened: as §1

[9] = tested on: Hs578T; test: as above
Procedure, shortened: as §1

[10] = tested on: HDQ-P1; test: as above
Procedure, shortened: as §1

[11] = tested on: CAL-51; test: as above
Procedure, shortened: as §1

[12] = tested on: CAL-148; test: as above
Procedure, shortened: as §1

[13] = tested on: CAL-85-1; test: as above
Procedure, shortened: as §1

[14] = tested on: MFM-223; test: as above
Procedure, shortened: as §1

[15] = tested on: HCC1143; test: drug sensitivity score (DSS), CellTiter-Glo (DSS (AUC-based score)); higher = stronger drug effect (viability inhibition or cytotoxicity); extreme values may be limits of the assay
Procedure, shortened: (§2)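 For 72 h, breast cancer cell lines seeded at 20 µl suspension per well in 384-well plates were incubated with compound at 5 concentrations in 10-fold steps spanning a 10,000-fold range that differed by compound. The first reading was CellTox Green fluorescence at 485/520 nm, and the second was CellTiter-Glo luminescence after 10 min at room temperature. Both were normalised per plate to 0.1 % DMSO and a positive kill control, and the drug sensitivity score was obtained from the area under the fitted dose-response curve.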

[16] = tested on: HCC1937; test: as above
Procedure, shortened: as §2

[17] = tested on: CAL-120; test: as above
Procedure, shortened: as §2

[18] = tested on: BT-474; test: as above
Procedure, shortened: as §2

[19] = tested on: MCF-10A; test: as above
Procedure, shortened: as §2

[20] = tested on: Hs578T; test: as above
Procedure, shortened: as §2

[21] = tested on: CAL-51; test: as above
Procedure, shortened: as §2

[22] = tested on: CAL-148; test: as above
Procedure, shortened: as §2

[23] = tested on: CAL-85-1; test: as above
Procedure, shortened: as §2

[24] = tested on: MFM-223; test: as above
Procedure, shortened: as §2

COc1cc(Nc2ncc(F)c(Nc3ccc4c(n3)NC(=O)C(C)(C)O4)n2)cc(OC)c1OC [R406]
normalised viability ([1]; 10 nM): 104%
normalised viability ([1]; 1000 nM): 87.3%
normalised viability ([1]; 10000 nM): 101%
normalised viability ([2]; 10 nM): 89.7%
normalised viability ([2]; 1000 nM): 77.3%
normalised viability ([2]; 10000 nM): 53%
normalised viability ([3]; 10 nM): 90.6%
normalised viability ([3]; 1000 nM): 91.3%
normalised viability ([3]; 10000 nM): 80.5%
normalised viability ([4]; 10 nM): 133%
normalised viability ([4]; 1000 nM): 111%
normalised viability ([4]; 10000 nM): 130%
normalised viability ([5]; 3 nM): 96.4%
normalised viability ([5]; 30 nM): 85.1%
normalised viability ([5]; 100 nM): 91.5%
normalised viability ([6]; 10 nM): 95.7%
normalised viability ([6]; 1000 nM): 77.2%
normalised viability ([6]; 10000 nM): 52.5%
normalised viability ([7]; 3 nM): 119%
normalised viability ([7]; 30 nM): 102%
normalised viability ([7]; 100 nM): 108%
normalised viability ([8]; 10 nM): 84.3%
normalised viability ([8]; 1000 nM): 102%
normalised viability ([8]; 10000 nM): 101%
normalised viability ([9]; 10 nM): 115%
normalised viability ([9]; 1000 nM): 105%
normalised viability ([9]; 10000 nM): 88.4%
normalised viability ([10]; 3 nM): 111%
normalised viability ([10]; 30 nM): 93.7%
normalised viability ([10]; 100 nM): 99.5%
normalised viability ([11]; 3 nM): 107%
normalised viability ([11]; 30 nM): 107%
normalised viability ([11]; 100 nM): 107%
normalised viability ([12]; 3 nM): 95.3%
normalised viability ([12]; 30 nM): 100%
normalised viability ([12]; 100 nM): 97.7%
normalised viability ([13]; 3 nM): 93.8%
normalised viability ([13]; 30 nM): 87.8%
normalised viability ([13]; 100 nM): 97.5%
normalised viability ([14]; 10 nM): 92.4%
normalised viability ([14]; 1000 nM): 89.5%
normalised viability ([14]; 10000 nM): 85.4%

Cc1cc(C(C)Nc2ccccc2)c2nc(N3CCOCC3)cc(=O)n2c1 (centres undefined) [TGX-221]
drug sensitivity score [15]: 0
drug sensitivity score [16]: 0
drug sensitivity score [17]: 0.0447
drug sensitivity score [18]: 3.45
drug sensitivity score [19]: 0
drug sensitivity score [20]: 0
drug sensitivity score [21]: 10.7
drug sensitivity score [22]: 0
drug sensitivity score [23]: 0
drug sensitivity score [24]: 0

COc1cc(Nc2ncc(F)c(Nc3ccc4c(n3)NC(=O)C(C)(C)O4)n2)cc(OC)c1OC [Tamatinib]
drug sensitivity score [15]: 0
drug sensitivity score [16]: 0
drug sensitivity score [17]: 0
drug sensitivity score [18]: 0
drug sensitivity score [19]: 0
drug sensitivity score [20]: 0
drug sensitivity score [21]: 2.11
drug sensitivity score [22]: 0
drug sensitivity score [23]: 0
drug sensitivity score [24]: 0

c1ccc(C2CN3CCSC3=N2)cc1 (centres undefined) [Tetramisole]
normalised viability ([1]; 10 nM): 101%
normalised viability ([1]; 1000 nM): 106%
normalised viability ([1]; 10000 nM): 120%
normalised viability ([2]; 10 nM): 105%
normalised viability ([2]; 1000 nM): 85.6%
normalised viability ([2]; 10000 nM): 89.1%
normalised viability ([3]; 10 nM): 110%
normalised viability ([3]; 1000 nM): 112%
normalised viability ([3]; 10000 nM): 105%
normalised viability ([4]; 10 nM): 111%
normalised viability ([4]; 1000 nM): 137%
normalised viability ([4]; 10000 nM): 107%
normalised viability ([5]; 3 nM): 91.1%
normalised viability ([5]; 30 nM): 99.9%
normalised viability ([5]; 100 nM): 101%
normalised viability ([6]; 10 nM): 96.5%
normalised viability ([6]; 1000 nM): 91.7%
normalised viability ([6]; 10000 nM): 104%
normalised viability ([7]; 3 nM): 93.6%
normalised viability ([7]; 30 nM): 104%
normalised viability ([7]; 100 nM): 98.5%
normalised viability ([8]; 10 nM): 110%
normalised viability ([8]; 1000 nM): 111%
normalised viability ([8]; 10000 nM): 113%
normalised viability ([9]; 10 nM): 90.2%
normalised viability ([9]; 1000 nM): 95.5%
normalised viability ([9]; 10000 nM): 107%
normalised viability ([10]; 3 nM): 117%
normalised viability ([10]; 30 nM): 116%
normalised viability ([10]; 100 nM): 109%
normalised viability ([11]; 3 nM): 85.4%
normalised viability ([11]; 30 nM): 92.1%
normalised viability ([11]; 100 nM): 89.6%
normalised viability ([12]; 3 nM): 103%
normalised viability ([12]; 30 nM): 103%
normalised viability ([12]; 100 nM): 125%
normalised viability ([13]; 3 nM): 104%
normalised viability ([13]; 30 nM): 92.8%
normalised viability ([13]; 100 nM): 99.4%
normalised viability ([14]; 10 nM): 101%
normalised viability ([14]; 1000 nM): 96.4%
normalised viability ([14]; 10000 nM): 90.3%

C[C@@H]1CCN(C(=O)CC#N)C[C@@H]1N(C)c1ncnc2[nH]ccc12 [Tofacitinib]
drug sensitivity score [15]: 0
drug sensitivity score [16]: 0
drug sensitivity score [17]: 0
drug sensitivity score [18]: 0
drug sensitivity score [19]: 0
drug sensitivity score [20]: 0
drug sensitivity score [21]: 5
drug sensitivity score [22]: 0
drug sensitivity score [23]: 0
drug sensitivity score [24]: 0

FC(F)c1nc2ccccc2n1-c1nc(N2CCOCC2)nc(N2CCOCC2)n1 [ZSTK474]
drug sensitivity score [15]: 6.07
drug sensitivity score [16]: 6.46
drug sensitivity score [17]: 7.92
drug sensitivity score [18]: 6.3
drug sensitivity score [19]: 10.9
drug sensitivity score [20]: 11.3
drug sensitivity score [21]: 11.6
drug sensitivity score [22]: 6.71
drug sensitivity score [23]: 10.4
drug sensitivity score [24]: 9.3
